Laboratory results published in PubChem BioAssay (NCI).
Values joined by “and” are separate entries in the source; they are usually repeats but may differ in a detail not shown here. Identical values can stand only once.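 How tested: cells in 96-well plates exposed to compound for 48 hours at five concentrations. GI50 is the concentration that inhibits growth by half. Definition used: TGI = concentration required for complete inhibition of growth.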

What was measured:
Assay in all cases: growth of human tumour cells (NCI), 48 h
MOLT-4 leukemia = system: MOLT-4 leukemia
SK-OV-3 ovarian = system: SK-OV-3 ovarian
MDA-MB-231 breast = system: MDA-MB-231 breast
HS 578T breast = system: HS 578T breast
TK-10 renal = system: TK-10 renal
HCT-15 colon = system: HCT-15 colon
HL-60(TB) leukemia = system: HL-60(TB) leukemia
HCT-116 colon = system: HCT-116 colon
NCI/ADR-RES ovarian = system: NCI/ADR-RES ovarian
SF-295 CNS = system: SF-295 CNS

SMILES	GI50 (MOLT-4 leukemia)	TGI (MOLT-4 leukemia)	GI50 (SK-OV-3 ovarian)	TGI (SK-OV-3 ovarian)	GI50 (MDA-MB-231 breast)	TGI (MDA-MB-231 breast)	GI50 (HS 578T breast)	TGI (HS 578T breast)	GI50 (TK-10 renal)	TGI (TK-10 renal)	GI50 (HCT-15 colon)	TGI (HCT-15 colon)	GI50 (HL-60(TB) leukemia)	TGI (HL-60(TB) leukemia)	GI50 (HCT-116 colon)	TGI (HCT-116 colon)	GI50 (NCI/ADR-RES ovarian)	TGI (NCI/ADR-RES ovarian)	GI50 (SF-295 CNS)	TGI (SF-295 CNS)
CCCN1C(=O)N(CCC)C2C1NC(=S)N2/N=C/C=C/c1ccccc1OC (stereo not drawn)	0.576 µM	> 66.2 µM	0.518 µM	> 100 µM	2.16 µM	22.5 µM	0.478 µM	> 100 µM	12.6 µM	> 100 µM	0.537 µM	> 100 µM	0.337 µM	1.71 µM	0.445 µM	> 100 µM	0.498 µM	> 100 µM	0.487 µM	29.4 µM
C=C(Cl)C(Br)(CCl)CCC(Br)C(C)(C)Cl (stereo not drawn)		8.82 µM		27.1 µM	2.02 µM	2.32 µM and 3.77 µM	2.62 µM	> 27.9 µM		24.6 µM	2.01 µM	9.57 µM and 3.94 µM		5.19 µM		3.14 µM and 3.21 µM	4.39 µM	10.9 µM		19.9 µM
CCOC(=O)C(Cc1ccc(CCCC(=O)NCCC(=O)Nc2ccc3nc(C)sc3c2)cc1)C(=O)OCC	21.3 µM	54.5 µM	> 100 µM	> 100 µM	52.5 µM	> 100 µM	68.3 µM	> 100 µM	> 100 µM	> 100 µM	31.8 µM	> 100 µM	23.7 µM	64.7 µM	45.8 µM	> 100 µM	24.6 µM	69.1 µM	49.4 µM	> 100 µM
CC[C@H]1[C@@H]2C=C[C@@H]3[C@H]4C/C=C\C(=O)NCCC[C@@H]5NC(=O)/C(=C(O)/C=C/[C@@H]4C[C@@H]3[C@H]2C[C@H]1C)C5=O	1.48 µM	3.47 µM	1.73 µM	3.48 µM	1.3 µM	2.66 µM	1.44 µM	3.81 µM	1.35 µM	2.71 µM	0.425 µM	1.86 µM	1.92 µM	3.99 µM	1.48 µM	3.03 µM	0.815 µM	2.36 µM	1.42 µM	2.8 µM
CCOC(=O)Nc1ccc(C)c(NC(=O)OCC)c1		> 100 µM		> 100 µM		> 100 µM		> 100 µM		> 100 µM		> 100 µM		> 100 µM		> 100 µM		> 100 µM		> 100 µM
Nc1c(C(=O)Nc2ccncc2)sc2nc3c(cc12)CCCCCCCC3	1.22 µM	2.76 µM	0.846 µM	1.61 µM	0.899 µM	1.66 µM	1.08 µM	2.54 µM	1.17 µM	1.98 µM	0.962 µM	1.8 µM	0.948 µM	2.19 µM			0.921 µM	1.78 µM	0.907 µM	1.69 µM
CN(C)C(n1cc2c(c1)-c1ccc(Cl)cc1C(c1ccccc1F)=NC2)n1cc2c(c1)-c1ccc(Cl)cc1C(c1ccccc1F)=NC2		> 100 µM		> 100 µM		> 100 µM		> 100 µM				> 100 µM		> 100 µM		> 100 µM		> 100 µM		> 100 µM
Nc1nc(/C=C\c2ccc([N+](=O)[O-])s2)nc(N2CCCC2)n1	2.16 µM	12.1 µM	9.25 µM	30.4 µM	1.56 µM	9.35 µM	12.9 µM	59.7 µM	6.27 µM	20.9 µM			5.39 µM	25.3 µM	1.1 µM	4.68 µM	4.51 µM	23.2 µM	4.4 µM	21.3 µM
COc1cc(-c2cc(-c3cc4c([nH]c5ccccc54)c(-c4cc(OC)c(OC)c(OC)c4)n3)cc(-c3ccccc3)n2)cc(OC)c1OC	4.09 µM	41.9 µM	5 µM	51.9 µM	3.59 µM	> 100 µM	6.09 µM	> 100 µM	4.5 µM	31.2 µM	3.37 µM	> 100 µM	3.09 µM	11.3 µM	4.02 µM	> 100 µM	3.12 µM	94.8 µM		
COc1ccc(C(=O)/C=C/c2cc(-c3cc(OC)c(OC)c(OC)c3)n[nH]2)cc1OC	2.11 µM	5.56 µM	2.79 µM	7.83 µM	1.48 µM	3.06 µM	2.57 µM	8.2 µM	1.33 µM	2.6 µM	1.27 µM	2.85 µM	1.44 µM	4.18 µM			3.13 µM	15.7 µM		
